In ChEMBL document CHEMBL1139664, “Identification of a novel series of tetrahydrodibenzazocines as inhibitors of 17beta-hydroxysteroid dehydrogenase type 3” (Bioorg Med Chem Lett, 2006) one finds IC50 and Stability data, which are given here for 46 compounds.

Data set [1] deals with T1, 17-beta-hydroxysteroid dehydrogenase type 3 (Homo sapiens, UniProt P37058).
T1 sequence (P37058 whole entry): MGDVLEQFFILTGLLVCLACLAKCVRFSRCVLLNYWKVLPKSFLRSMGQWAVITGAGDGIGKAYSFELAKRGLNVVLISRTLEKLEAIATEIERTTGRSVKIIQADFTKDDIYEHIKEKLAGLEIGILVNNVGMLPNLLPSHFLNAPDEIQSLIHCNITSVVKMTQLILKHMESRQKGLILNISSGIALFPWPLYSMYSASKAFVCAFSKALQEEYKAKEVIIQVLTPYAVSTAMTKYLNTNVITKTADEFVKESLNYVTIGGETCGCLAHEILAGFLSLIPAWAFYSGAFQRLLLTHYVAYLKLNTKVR
Put plainly: Inhibition of 17beta-HSD3.

Data set [2] deals with T1, 17-beta-hydroxysteroid dehydrogenase type 3. Briefly: Inhibition of 17beta-HSD3 by SEAP assay.
A further data set relates to Liver microsomes. Briefly: Stability in human liver microsome at 10 uM. It is filed as ADME.

For the compound `O=C(C1CC1)N1Cc2ccc(Br)cc2CCc2ccccc21`, the IC50 in data set [1] was found to be 0.32 µM; in data set [2] it was 1.75 µM.

For `CC(=O)N1Cc2ccccc2CSc2cc(O)ccc21`, the IC50 in data set [1] turned out to be 4.86 µM.

Turning to `CC(=O)N1Cc2cc(-c3ccccc3)ccc2CCc2cc(Cl)ccc21`, the half-maximal inhibitory concentration (IC50) amounted to 0.004 µM in data set [1] and 0.018 µM in data set [2].

With `COC(=O)c1cccc(-c2ccc3c(c2)CN(C(C)=O)c2ccc(Cl)cc2CC3)c1`, the IC50 amounted to 0.0014 µM in data set [1] and 0.002 µM in data set [2].

In the case of `CC(=O)N1Cc2ccccc2CSc2cc(C)ccc21`, the IC50 in data set [1] was 1 µM; in data set [2] it was 0.87 µM.

As for `CC(=O)N1Cc2cc(-c3cccc(CN)c3)ccc2CCc2cc(Cl)ccc21`, the IC50 in data set [1] is 0.29 µM; in data set [2] it was 0.18 µM.

With `CC(=O)N1Cc2cc(-c3ccccc3)ccc2CCc2ccccc21`, the IC50 in data set [2] was 0.004 µM.

In turn, `COC(=O)c1ccccc1-c1ccc2c(c1)CN(C(C)=O)c1ccc(Br)cc1CC2` returned a Stability in the data set with Liver microsomes of 0.4 nmol/mg/min. Besides, the IC50 in data set [1] is 0.0007 µM; in data set [2] it was 0.001 µM.

Regarding `CC(=O)N1Cc2cc(-c3ccccc3C#N)ccc2CCc2cc(Cl)ccc21`, the IC50 stood at 0.005 µM in data set [1] and 0.062 µM in data set [2].

Consider `CC(=O)N1Cc2cc(Br)ccc2CCc2ccccc21`, for which the figures for the IC50 in data set [1] and in data set [2] were 0.009 µM and 0.032 µM, respectively.

Turning to `COC(=O)c1ccccc1-c1ccc2c(c1)CN(C(C)=O)c1ccc(Cl)cc1CC2`, in the data set on Liver microsomes, the Stability turned out to be 0.9 nmol/mg/min. The same compound showed a half-maximal inhibitory concentration (IC50) in data set [2] of 0.0005 µM.

With `CC(=O)N1Cc2ccccc2CSc2ccccc21`, the 50% inhibitory concentration (IC50) was found to be 0.4 µM in data set [1] and 0.32 µM in data set [2].

As for `CC(=O)N1Cc2cc(-c3cccc(C#N)c3)ccc2CCc2cc(Cl)ccc21`, the values for the IC50 in data set [1] and in data set [2] were 0.003 µM and 0.015 µM, respectively.

As for `CC(=O)N1Cc2ccc(NCc3ccccc3)cc2CCc2ccccc21`, the IC50 in data set [1] stood at 0.008 µM; in data set [2], 0.004 µM.

Consider `NC(=O)N1Cc2ccc(Br)cc2CCc2ccccc21`, for which the IC50 in data set [1] worked out at 0.28 µM; in data set [2], 0.93 µM.

For `CC(=O)N1Cc2cc(-c3ccccc3CN)ccc2CCc2cc(Cl)ccc21`, the IC50 in data set [1] is 0.239 µM; in data set [2], 0.182 µM.

Regarding `CC(=O)N1Cc2cc(-c3ccc(C#N)cc3)ccc2CCc2cc(Cl)ccc21`, the figures for the half-maximal inhibitory concentration (IC50) in data set [1] and in data set [2] were 0.003 µM and 0.019 µM, respectively.

Take `CC(=O)N1Cc2ccccc2CSc2ccc(Cl)cc21`: the IC50 was 0.03 µM in data set [1] and 0.17 µM in data set [2].

As to `CC(=O)N1Cc2ccccc2CSc2cc(S(C)(=O)=O)ccc21`, the IC50 in data set [1] is greater than 10 µM.

For the compound `COc1cccc(-c2ccc3c(c2)CN(C(C)=O)c2ccc(Cl)cc2CC3)c1`, the IC50 amounted to 0.008 µM in data set [1] and 0.053 µM in data set [2].

`CC(=O)N1Cc2ccccc2COc2ccccc21`: in data set [1], the IC50 turned out to be 2.97 µM.

Take `CC(=O)N1Cc2ccccc2CSc2cc(Br)ccc21`: the IC50 in data set [1] turned out to be 0.25 µM; in data set [2], 0.12 µM.

Consider `CC(=O)N1Cc2ccccc2/C=C\c2cc(Cl)ccc21`, for which the IC50 in data set [1] turned out to be 0.24 µM; in data set [2] it was 0.5 µM.

`CC(=O)c1ccccc1-c1ccc2c(c1)CN(C(C)=O)c1ccc(Cl)cc1CC2`: the IC50 in data set [2] was 0.0005 µM.

`CC(=O)N1Cc2cc(-c3ccccc3NS(C)(=O)=O)ccc2CCc2cc(Cl)ccc21`: the IC50 was 0.002 µM in data set [1] and 0.009 µM in data set [2].

Take `CC(=O)N1Cc2ccccc2CCc2ccccc21`: the IC50 in data set [1] amounted to 0.09 µM; in data set [2], 0.22 µM.

For the compound `CC(=O)N1Cc2ccc(C(N)=O)cc2CCc2ccccc21`, the IC50 was greater than 1 µM in data set [1] and 2.98 µM in data set [2].

On to `CC(=O)N1Cc2ccccc2CSc2cc(Cl)ccc21`, for which the IC50 was determined as 0.1 µM in data set [1] and 0.16 µM in data set [2].

`CC(=O)N1Cc2cc(-c3ccccc3CO)ccc2CCc2cc(Cl)ccc21`: the results for the IC50 in data set [1] and in data set [2] were 0.0009 µM and 0.002 µM, respectively.

In data set [1], `CC(=O)N1Cc2ccccc2CSc2cccc(Cl)c21` displayed an IC50 of 11.5 µM.

With `CC(=O)N1Cc2ccccc2CNc2ccccc21`, the IC50 in data set [1] was 4.74 µM; in data set [2], greater than 10 µM.

For `CCN1Cc2ccc(Br)cc2CCc2ccccc21`, the IC50 in data set [1] was greater than 1 µM; in data set [2], 2.2 µM.

For the compound `CC(=O)N1Cc2ccc(NC(=O)c3ccccc3)cc2CCc2ccccc21`, the IC50 in data set [1] was determined as 0.16 µM; in data set [2], 0.26 µM.

As for `CC(=O)N1Cc2cc(-c3cccc(NS(C)(=O)=O)c3)ccc2CCc2cc(Cl)ccc21`, the half-maximal inhibitory concentration (IC50) in data set [1] amounted to 0.14 µM; in data set [2] it was 0.19 µM.

For the compound `CC(=O)N1Cc2ccccc2CSc2c1ccc(Cl)c2Cl`, the IC50 worked out at 0.76 µM in data set [1] and 1.3 µM in data set [2].

Consider `CC(=O)N1Cc2ccccc2CSc2cc(Cl)c(Cl)cc21`, for which the IC50 was 0.01 µM in data set [1] and 0.13 µM in data set [2].

Turning to `CC(=O)N1Cc2ccc(N)cc2CCc2ccccc21`, the IC50 in data set [1] and in data set [2] was 0.49 µM throughout.

Turning to `COc1ccccc1-c1ccc2c(c1)CN(C(C)=O)c1ccc(Cl)cc1CC2`, the IC50 was found to be 0.002 µM in data set [1] and 0.005 µM in data set [2].

On to `COc1ccc(-c2ccc3c(c2)CN(C(C)=O)c2ccc(Cl)cc2CC3)cc1`, for which the results for the IC50 in data set [1] and in data set [2] were 0.003 µM and 0.048 µM, respectively.

Turning to `CC(=O)N1Cc2ccccc2CSc2cc(F)ccc21`, the IC50 amounted to 0.09 µM in data set [1] and 0.29 µM in data set [2].

As for `CC(=O)N1Cc2ccccc2CCc2cc(Cl)ccc21`, the results for the IC50 in data set [1] and in data set [2] were 0.07 µM and 0.63 µM, respectively.

As to `CC(=O)N1Cc2ccccc2CSc2ccc(C(F)(F)F)cc21`, the IC50 in data set [1] came to 2.81 µM.

Regarding `CNC(=O)c1ccccc1-c1ccc2c(c1)CN(C(C)=O)c1ccc(Cl)cc1CC2`, the IC50 in data set [1] and in data set [2] was 0.025 µM each time.

As to `COc1ccc2c(c1)SCc1ccccc1CN2C(C)=O`, the values for the IC50 in data set [1] and in data set [2] were 2.06 µM and greater than 10 µM, respectively.

Turning to `CC(=O)N1Cc2ccc(Br)cc2CCc2ccccc21`, the IC50 in data set [1] was determined as 0.007 µM; in data set [2], 0.036 µM.

Regarding `CC(=O)N1Cc2ccccc2CCc2ccc(Cl)cc21`, the IC50 in data set [1] was 0.05 µM; in data set [2] it was 0.13 µM.
